We go through two molecules from patent EP0295604A1, “(E)-2-(p-Fluorophenethyl)-3-fluoroallylamine” (MERRELL DOW PHARMACEUTICALS INC., priority 1987, dated 1988).

What is called IC50 is the concentration that inhibits the measured activity by half. A high value points to a need for much substance.

The subject of one data set is Striatal dopamine. As to the kind of experiment: Prevention of MPTP neurotoxicity (striatal dopamine). Format: in vivo. The conditions noted are these: mice. The text has this: MPTP given parenterally to mice depletes striatal dopamine. This effect can be prevented by MAO-B, but not by MAO-A inhibitor.
For data set [1], the system named is tachycardia response to tyramine. Briefly: Potentiation of the cardiovascular effects of tyramine (tachycardia response). Format: in vivo. The conditions noted are these: for Tyramine potentiation ratio i.d.: intraduodenal tyramine 0.3-50 mg/kg; for Tyramine potentiation ratio i.v.: intravenous tyramine 1.25-80 µg/kg. From the text:
Non-selective and MAO-A selective inhibitors are known to produce dangerous cardiovascular interactions with tyramine containing foods; the so-called "cheese reaction". L-Deprenyl is devoid of this effect.

A further data set deals with MAO-B. Briefly: Chronic (14 day) oral administration, rat tissue MAO-B activity. Format: in vivo.
The next data set has as its system MAO-A. Briefly: Chronic (14 day) oral administration, rat tissue MAO-A activity. Format: in vivo. From the text: Following repeated daily administration for 14 days, (E)-2-p-fluorophenethyl)-3-fluoroallylamine remained selective for the MAO-B enzyme. From the irreversible inhibition, mode of action and the long half-life of the enzyme, a lower daily dose is needed to inhibit the enzyme.

The target in data set [2] is T1, rat brain mitochondrial MAO-A (Rattus norvegicus, UniProt P21396).
T1 construct: from tissue; host or cells: rat brain mitochondria
T1 sequence (P21396 1-526): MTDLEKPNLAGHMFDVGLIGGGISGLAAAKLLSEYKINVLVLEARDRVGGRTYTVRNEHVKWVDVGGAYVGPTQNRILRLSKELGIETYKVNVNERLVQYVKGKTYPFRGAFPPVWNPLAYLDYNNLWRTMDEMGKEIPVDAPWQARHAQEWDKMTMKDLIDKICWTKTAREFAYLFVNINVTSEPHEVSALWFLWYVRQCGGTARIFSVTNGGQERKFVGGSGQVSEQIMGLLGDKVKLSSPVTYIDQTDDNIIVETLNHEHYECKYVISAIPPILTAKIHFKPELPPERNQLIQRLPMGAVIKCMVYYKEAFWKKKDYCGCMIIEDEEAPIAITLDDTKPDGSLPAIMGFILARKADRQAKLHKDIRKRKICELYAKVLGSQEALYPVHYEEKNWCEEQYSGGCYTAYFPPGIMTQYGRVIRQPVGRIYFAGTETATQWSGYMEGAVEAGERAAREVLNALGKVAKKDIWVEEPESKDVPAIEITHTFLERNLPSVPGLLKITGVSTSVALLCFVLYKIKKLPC
Briefly: In vitro inhibition of rat brain mitochondrial MAO-A. The class given is biochemical. From the text: In vivo, the compound is active orally, is potent and with a selectivity ratio of 44 remains selective for MAO-B.

Data set [3] deals with T2, rat brain mitochondrial MAO-B (Rattus norvegicus, UniProt P19643).
T2 sequence (P19643 1-520): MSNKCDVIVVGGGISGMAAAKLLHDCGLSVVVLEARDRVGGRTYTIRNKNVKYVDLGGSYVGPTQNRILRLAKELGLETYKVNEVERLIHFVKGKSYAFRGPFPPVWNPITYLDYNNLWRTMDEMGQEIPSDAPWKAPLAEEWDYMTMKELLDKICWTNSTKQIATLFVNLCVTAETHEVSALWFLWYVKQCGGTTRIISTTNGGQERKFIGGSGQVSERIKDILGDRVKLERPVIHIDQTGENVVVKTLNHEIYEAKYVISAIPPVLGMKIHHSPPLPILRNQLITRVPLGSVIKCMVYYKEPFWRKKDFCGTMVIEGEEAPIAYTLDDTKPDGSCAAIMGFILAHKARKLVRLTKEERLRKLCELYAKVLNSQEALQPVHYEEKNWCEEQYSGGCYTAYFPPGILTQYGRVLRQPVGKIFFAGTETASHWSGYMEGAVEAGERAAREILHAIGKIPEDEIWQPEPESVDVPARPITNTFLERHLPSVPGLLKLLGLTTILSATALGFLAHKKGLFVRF
Briefly: In vitro inhibition of rat brain mitochondrial MAO-B. Format: biochemical. The settings on record: MAO-A vs MAO-B IC50.

Where only a bound is given, the exact number is not on record here.

For `NC/C(=C/F)CCc1ccc(F)cc1` [(E)-2-(p-fluorophenethyl)-3-fluoroallylamine], the Striatal dopamine is 16.0 ± 0.4 ug/g ± SEM in the data set with Striatal dopamine (MPTP plus compound) and 16.6 ± 0.9 ug/g ± SEM in the data set with Striatal dopamine (compound alone, 1.25 mg/kg i.p.). Further, the “Tyramine potentiation ratio i.d.” value in data set [1] (1.8 mg/kg p.o.) is 1.4; in data set [1] (9 mg/kg p.o.), 1.3. The entries for the “Tyramine potentiation ratio i.v.” value in data set [1] (1.8 mg/kg p.o.) and in data set [1] (9 mg/kg p.o.) were 0.8 and 1.8, respectively. In data set [1] (given acutely at 10 and 50 times the ED50 dose for inhibition of MAO-B), the interactions with tyramine result is given as “devoid of interactions with tyramine”. Besides, the “ED50 MAO-B” value in the data set on MAO-B (Brain) is listed as 0.025 mg/kg p.o; with MAO-B (Duodenum) it was 0.25 mg/kg p.o; with MAO-B (Heart) it was 0.5 mg/kg p.o; in the data set on MAO-B (Liver), 0.01 mg/kg p.o. Also, the “ED50 MAO-A” value is on record as greater than 5 mg/kg p.o in the data set with MAO-A (Brain), >>5 mg/kg p.o in the data set with MAO-A (Duodenum), 5 mg/kg p.o in the data set on MAO-A (Heart) and greater than 5 mg/kg p.o in the data set with MAO-A (Liver). The molecule further had an IC50 in data set [2] of 680 nM. The “selectivity ratio in favor of MAO-B inhibition” value in data set [3] came to 190.

For the molecule `CN1CC=C(c2ccccc2)CC1` [MPTP, N-methyl-4-phenyl-1,2,3,6-tetrahydropyridine, reference compound], the Striatal dopamine in the data set on Striatal dopamine (MPTP alone, 20 mg/kg i.p.) is recorded as 4.3 ± 0.4 ug/g ± SEM.
